Laboratory results from PMC4382154, “Screening of the Pan-African Natural Product Library Identifies Ixoratannin A-2 and Boldine as Novel HIV-1 Inhibitors” (PLoS ONE, 2015).
Like-named read-outs stand apart in the source and are kept apart here.

Experiments:
Format in all cases: cell-based
[1] = PBMC cytotoxicity (ViaCount Assay); conditions: human, all assessed concentrations, read-out: PBMC viability relative to PBMCs in 0.1% DMSO
Protocol: Cytotoxicity was determined by ViaCount Assay (Millipore). Briefly, Day 3 PHA-activated PBMCs (3*10^5) were cultured in R10+ supplemented with 100 units/mL human IL-2 in the presence of 0.1% DMSO or compounds at defined concentrations. At Day 5, 15 μL of each PBMC culture was mixed with Guava ViaCount Reagent at a 1:10 dilution. Data were collected using a Guava EasyCyte HT Flow Cytometer (Millipore).

HIV-1NL4-3 = test: microbe, parasite or virus in culture; conditions: for percent GFP-positive (HIV-infected) cells: 100 μM; for selectivity index (SI): CC50 over EC50 in CEM-GXR cells; for EC50: read-out: HIV-1NL4-3 inhibition (EC50)
Protocol: (§1) CEM-GXR cells are an immortalized CD4+ T-lymphocyte line engineered that naturally express the HIV-1 coreceptor CXCR4 and have been further engineered to express the HIV-1 co-receptor CCR5 and a Tat-driven LTR-GFP expression cassette. As such, intracellular GFP expression indicates HIV-1 infection. Cultures of 10^5 CEM-GXR cells were seeded into 96-well plates with RPMI-1640 media (Sigma) supplemented with penicillin/streptomycin plus 20% fetal calf serum (R20+), infected with HIV-1 at a multiplicity of infection of 0.03 (to achieve 3% infected cells on Day 2), and incubated at 37°C and 5% CO2. 24 hours later, cells were pelleted at 750 g and resuspended in R20+ containing compound or 0.1% DMSO. […] Cells were then incubated at 37°C and 5% CO2 for an additional 72 h. 5,000 cells from each culture were measured for cell toxicity and GFP expression by flow cytometry. Flow cytometry data were analyzed using FlowJo v. 8.8.7 software (FlowJo LLC, Ashland, OR). […] Background GFP expression in uninfected cultures was set at 0.05% GFP-positive cells. For each experiment, all data points were obtained in triplicate. All data are reported as the mean ± s.e.m. from at least 3 independent experiments performed with different virus stocks and/or performed on different days. However, all experiments that compare HIV-1NL4-3 and mutant HIV-1 were performed in parallel. EC50 and CC50 values for each compound were calculated from at least four concentrations. Statistical analyses were performed using Student’s unpaired t test, with a p value < 0.05 plus a Bonferroni correction to adjust for multiple comparisons considered significant.
(§2) To assess the effects of these eight compounds on cell viability and HIV-1 replication, we infected a GFP-reporter CEM CD4+ T cell line (CEM-GXR) with the NL4-3 strain of HIV-1 (HIV-1NL4-3). Briefly, cells were infected with HIV-1NL4-3 at a multiplicity of infection of 0.03 (Day 0), followed by removal of HIV-1 and addition of compound (or 0.1% DMSO vehicle control) 24 hours later (Day 1) and incubation for an additional 72 hours to allow HIV-1 spread (Days 2–4). On Days 2 and/or 4, the percent HIV-1 infected (i.e., GFP-expressing) cells was measured by flow cytometry. Cell viability was assessed by measuring the percentage of cells displaying normal forward- and side-scatter parameters in drug-treated, HIV-1 infected cultures compared to 0.1% DMSO-treated, HIV-1 infected control cultures. […] HIV-1NL4-3 replication was unaffected by the presence of 0.1% DMSO vehicle control (Fig. 2B).

HIV-1PR+RT = HIV-1PR+RT replication in CEM-GXR cells; conditions: for HIV-1PR+RT replication fold higher than HIV-1NL4-3: 75 μM; for EC50: Human immunodeficiency virus 1, CEM-GXR, 96 h, read-out: EC50 HIV-1PR+RT
Protocol: (§3) HIV-1Δvpu was constructed by digesting plasmid p210-13 3’ Δ-vpu with EcoRI and NheI enzymes. The resulting DNA fragment was then ligated into wild-type pNL4-3 plasmid digested with the same enzymes. HIV-1Δvpu and HIV-1NL4-3 viral stocks were prepared by transfection of HEK-293T cells, as previously described. Patient plasma-HIV-1 RNA sequences were analyzed for resistance mutations using the HIV Drug Resistance Database Genotype Resistance Interpretation Algorithm (hivdb.stanford.edu). Recombinant HIV-1NL4-3 expressing patient-derived HIV-1 sequences harboring resistance mutations to protease and reverse transcriptase inhibitors (HIV-1PR+RT), reverse transcriptase inhibitors (HIV-1RT), and integrase inhibitors (HIV-1INT) were generated by homologous recombination following co-transfection as reported.
as §1
(§4) To investigate the mechanisms by which ixoratannin A-2 and boldine may block HIV-1 replication, we used a previously-reported HIV-1NL4-3 strain lacking the Vpu coding region (HIV-1Δvpu). We also constructed recombinant HIV-1NL4-3 strains harboring protease, reverse transcriptase, and/or integrase sequences of HIV-1 strains from patients who had developed resistance to the protease inhibitor Indinavir (IND), the non-nucleoside reverse transcriptase inhibitor Efavirenz (EFV), and/or the integrase inhibitor Raltegravir (RAL) (denoted HIV-1PR+RT, HIV-1RT, and HIV-1INT, respectively). Re-sequencing of the recombinant viruses confirmed the presence of multiple mutations known to confer resistance to IND, EFV, and/or RAL (Table 2).

HIV-1Δvpu = HIV-1Δvpu replication in CEM-GXR cells; conditions: for fold less effective at inhibiting HIV-1Δvpu compared to HIV-1NL4-3: 75 μM, CEM-GXR cells; for EC50: Human immunodeficiency virus 1, CEM-GXR, 96 h, read-out: EC50 HIV-1Δvpu
Protocol: as §3, §1, §4

[2] = Cell toxicity in HIV-1 infected CEM-GXR cultures (forward/side scatter); conditions: human, HIV-1NL4-3-infected CEM-GXR cells (CD4+ T-lymphocyte line), Day 4
Protocol: as §1, §2

COc1cc2c(cc1O)C[C@H]1c3c(cc(O)c(OC)c3-2)CCN1C [boldine]
viability [1]: > 85% | percent GFP-positive (HIV-infected) cells (HIV-1NL4-3; Day 2, HIV-1NL4-3-infected CEM-GXR cells (infected control 3.14)): 2.17% | percent GFP-positive (HIV-infected) cells (HIV-1NL4-3; Day 4, HIV-1NL4-3-infected CEM-GXR cells (infected control 10.80)): 4.09% | selectivity index (SI) (HIV-1NL4-3): 4.1 | EC50 (HIV-1NL4-3; Human immunodeficiency virus 1, CEM-GXR, 96 h): 50.2 µM | HIV-1PR+RT replication fold greater vs. HIV-1NL4-3 (HIV-1PR+RT; 25 μM, CEM-GXR cells): 1.4 fold | HIV-1PR+RT replication fold higher than HIV-1NL4-3 (HIV-1PR+RT; CEM-GXR cells): 1.5 fold | EC50 (HIV-1PR+RT): > 100 µM | HIV-1PR+RT replication fold increased vs. HIV-1NL4-3 (HIV-1PR+RT; concentration not stated): 1.4 fold | inhibition of HIV-1PR+RT (HIV-1PR+RT; concentrations up to 75 or 100 μM, CEM-GXR cells): < 50% | fold less effective at inhibiting HIV-1Δvpu compared to HIV-1NL4-3 (HIV-1Δvpu): 1.3 fold | EC50 (HIV-1Δvpu): > 100 µM | CC50 at 72 h [2]: > 100 µM

Oc1cc(O)c2c(c1)OC1(c3ccc(O)c(O)c3)Oc3c4c(c5c(c3C2C1O)OC1(c2ccc(O)c(O)c2)Oc2cc(O)cc(O)c2C5C1O)OC(c1ccc(O)c(O)c1)C(O)C4 (stereo not drawn) [ixoratannin A-2]
viability ([1]; PHA-activated PBMCs): > 85% | selectivity index (SI) (HIV-1NL4-3): 1.7 | EC50 (HIV-1NL4-3; Human immunodeficiency virus 1, 96 h, CEM-GXR cells, Day 4): 34.4 µM | HIV-1PR+RT replication fold higher than HIV-1NL4-3 (HIV-1PR+RT; CEM-GXR cells): 1.5 fold | EC50 (HIV-1PR+RT): 36.4 µM | fold less effective at inhibiting HIV-1Δvpu compared to HIV-1NL4-3 (HIV-1Δvpu): 1.4 fold | EC50 (HIV-1Δvpu): 52 µM | CC50 at 72 h [2]: 57.5 µM
